# Patent US5545637A, “Process for preparing pharmaceutical compositions containing crystalline anhydrous mycophenolate mofetil salts” (Syntex (U.S.A.) Inc., priority 1995, dated 1996)
# Where a name gives a salt, the structure may show the parent alone.
# Columns and labels:
# Assay type in all cases: physicochemical
# [1] = Solubility in typical intravenous formulation solutions; settings: viewed over 3 days, typical intravenous formulation solutions (e.g., 5% dextrose solution or water suitable for injection), 4320 min
# [2] = Comparative stability of MM salt forms; settings: comparison of salt forms, in words
# [3] = Comparative solubility of MM salt forms
smiles,measurement,setting,value
"COc1c(C)c2c(c(O)c1C/C=C(\C)CCC(=O)OCCN1CCOCC1)C(=O)OC2 [2-(4-morpholino)ethyl-(E)-6-(1,3-dihydro-4-hydroxy-6-methoxy-7-methyl-3-oxo-5-isobenzofuranyl)-4-methyl-4-hexenoate hydrochloride]",solubility,[1]; hydrochloride,approximately 84 mg/ml
COc1c(C)c2c(c(O)c1C/C=C(\C)CCC(=O)OCCN1CCOCC1)C(=O)OC2 [MM in its monohydrate salt form],stability,[2],more stable than MM in its amorphous salt form
COc1c(C)c2c(c(O)c1C/C=C(\C)CCC(=O)OCCN1CCOCC1)C(=O)OC2 [amorphous salt form],solubility characteristics,"[3]; amorphous vs monohydrate salt form, in words",better solubility characteristics
COc1c(C)c2c(c(O)c1C/C=C(\C)CCC(=O)OCCN1CCOCC1)C(=O)OC2 [crystalline anhydrous salt form of MM],increase in solubility over the monohydrate salt form,[3]; anhydrous vs monohydrate salt form,about a two-fold increase in solubility over the monohydrate salt form
same,stability,[2],the same stability characteristics of the monohydrate salt form
COc1c(C)c2c(c(O)c1C/C=C(\C)CCC(=O)OCCN1CCOCC1)C(=O)OC2 [crystalline monohydrate form],solubility,[1],approximately 40 mg/ml
